Data published in ChEMBL document CHEMBL2311326, “Synthesis and evaluation of novel sulfenamides as novel anti Methicillin-resistant Staphylococcus aureus agents” (2013).
Converted amounts (≈) assume the structure as drawn.

Key:
Format in all cases: functional
[1] = system: Bacillus subtilis; test: Antimicrobial activity against Bacillus subtilis ATCC 6633
[2] = system: Pseudomonas aeruginosa; test: Antimicrobial activity against Pseudomonas aeruginosa PAO1
[3] = system: Staphylococcus aureus; test: Antimicrobial activity against methicillin-resistant Staphylococcus aureus
[4] = system: Staphylococcus aureus; test: Antimicrobial activity against methicillin-resistant Staphylococcus aureus isolate 309-7
[5] = system: Staphylococcus aureus; test: Antimicrobial activity against methicillin-sensitive Staphylococcus aureus isolate 309-1
[6] = system: Staphylococcus aureus; test: Antimicrobial activity against methicillin-resistant Staphylococcus aureus isolate 309-8
[7] = system: Staphylococcus aureus; test: Antimicrobial activity against methicillin-resistant Staphylococcus aureus isolate 309-4
[8] = system: Staphylococcus aureus; test: Antimicrobial activity against methicillin-resistant Staphylococcus aureus isolate Chaoyang
[9] = system: Staphylococcus aureus; test: Antimicrobial activity against methicillin-resistant Staphylococcus aureus isolate 6-42
[10] = system: Staphylococcus aureus; test: Antimicrobial activity against Staphylococcus aureus ATCC 6538

| Structure (SMILES) | MIC [1] [µg/mL] | MIC [2] [µg/mL] | MIC [3] [µg/mL] | further results |
| --- | --- | --- | --- | --- |
| Cc1ccc(SN[C@@H](Cc2c[nH]c3ccccc23)C(=O)OC(C)C)cc1 | 25 (≈ 67.8 µM) | > 100 | > 100 | – |
| COC(=O)c1ccccc1SN1C(=O)C(=O)c2ccccc21 | > 100 | > 100 | 50 (≈ 160 µM) | – |
| O=C1C(=O)N(Sc2ccccc2[N+](=O)[O-])c2ccccc21 | > 100 | > 100 | 25 (≈ 83.3 µM) | – |
| COC(=O)c1ccccc1SN1C(=O)C(=O)c2cccc(Cl)c21 | > 100 | > 100 | 12.5 (≈ 35.9 µM) | – |
| CCOC(=O)c1ccccc1SN1C(=O)C(=O)c2ccccc21 | > 100 | > 100 | 12.5 (≈ 38.2 µM) | – |
| O=C1C(=O)N(Sc2ccccc2[N+](=O)[O-])c2c(Br)cc(Br)cc21 | > 100 | > 100 | 25 (≈ 54.6 µM) | – |
| CCOC(=O)[C@H](Cc1c[nH]c2ccccc12)NSc1ccc([N+](=O)[O-])cc1[N+](=O)[O-] | 25 (≈ 58.1 µM) | > 100 | > 100 | – |
| CCOC(=O)[C@H](Cc1c[nH]c2ccccc12)NSc1ccc(C)cc1 | 25 (≈ 70.5 µM) | > 100 | > 100 | – |
| COC(=O)CC[C@H](NSc1ccc([N+](=O)[O-])cc1[N+](=O)[O-])C(=O)OC | 50 (≈ 134 µM) | > 100 | > 100 | – |
| O=C1C(=O)N(Sc2ccc([N+](=O)[O-])cc2[N+](=O)[O-])c2ccccc21 | > 100 | > 100 | > 100 | – |
| CC(C)OC(=O)CC[C@H](NSc1ccc([N+](=O)[O-])cc1[N+](=O)[O-])C(=O)OC(C)C | 25 (≈ 58.2 µM) | > 100 | > 100 | – |
| CCOC(=O)c1ccccc1SN1C(=O)C(=O)c2cc(Br)cc(Br)c21 | > 100 | > 100 | 25 (≈ 51.5 µM) | – |
| Cc1ccc(SN2C(=O)C(=O)c3ccccc32)cc1 | > 100 | > 100 | > 100 | – |
| O=C1C(=O)N(Sc2ccccc2[N+](=O)[O-])c2c(Br)cccc21 | > 100 | > 100 | 12.5 (≈ 33 µM) | – |
| COC(=O)[C@H](Cc1c[nH]c2ccccc12)NSc1ccc([N+](=O)[O-])cc1[N+](=O)[O-] | 25 (≈ 60 µM) | > 100 | > 100 | – |
| CCOC(=O)CC[C@H](NSc1ccc([N+](=O)[O-])cc1[N+](=O)[O-])C(=O)OCC | 50 (≈ 125 µM) | > 100 | > 100 | – |
| O=[N+]([O-])c1ccc(S)cc1 | – | – | – | MBC [4]: > 100 µg/mL; MIC [4]: 1.56 µg/mL (≈ 10.1 µM); MBC [5]: > 100 µg/mL; MIC [5]: 1.56 µg/mL (≈ 10.1 µM); MBC [6]: > 100 µg/mL; MIC [6]: 1.56 µg/mL (≈ 10.1 µM); MBC [7]: > 100 µg/mL; MIC [7]: 1.56 µg/mL (≈ 10.1 µM); MBC [8]: > 100 µg/mL; MIC [8]: 1.56 µg/mL (≈ 10.1 µM); MBC [9]: > 100 µg/mL; MIC [9]: 1.56 µg/mL (≈ 10.1 µM); MBC [10]: > 100 µg/mL; MIC [10]: 3.13 µg/mL (≈ 20.2 µM) |
